Data taken from patent US20240423207A1, “PICOLINAMIDE COMPOUNDS WITH FUNGICIDAL ACTIVITY” (CORTEVA AGRISCIENCE LLC, priority 2014, published 2024).
Read-outs that look alike come from different tables or passages of the source.

What was measured:
[1] = system: Puccinia triticina; Synonym: Puccinia recondita f sp. tritici; assay: Wheat Brown Rust (PUCCRT) fungicidal activity on wheat seedlings; format: in vivo; details: for pest or weed control at 100 ppm: High Volume; for pest or weed control at 121.5 g/ha: Low Volume, 121.5 g/H
Procedure: Technical grades of materials were dissolved in acetone, which were then mixed with nine volumes of water (H2O) containing 110 ppm Triton X-100. The fungicide solutions were applied onto wheat seedlings using an automated booth sprayer to run-off. All sprayed plants were allowed to air dry prior to further handling. All fungicides were evaluated using the aforementioned method for their activity vs. all target diseases, unless stated otherwise. Wheat leaf blotch and brown rust activity were also evaluated using track spray applications, in which case the fungicides were formulated as EC formulations, containing 0.1% Trycol 5941 in the spray solutions. Wheat plants (variety Yuma) were grown from seed in a greenhouse in 50% mineral soil/50% soil-less Metro mix until the first leaf was fully emerged, with 7-10 seedlings per pot. These plants were inoculated with an aqueous spore suspension of Septoria tritici either prior to or after fungicide treatments. After inoculation the plants were kept in 100% relative humidity (one day in a dark dew chamber followed by two to three days in a lighted dew chamber at 20° C.) to permit spores to germinate and infect the leaf. The plants were then transferred to a greenhouse set at 20° C. for disease to develop. When disease symptoms were fully expressed on the 1st leaves of untreated plants, infection levels were assessed on a scale of 0 to 100 percent disease severity. Percent disease control was calculated using the ratio of disease severity on treated plants relative to untreated plants. Example B: Evaluation of Fungicidal Activity: Wheat Brown Rust (Puccinia triticina; Synonym: Puccinia recondita f sp. tritici; Bayer code PUCCRT): Wheat plants (variety Yuma) were grown from seed in a greenhouse in 50% mineral soil/50% soil-less Metro mix until the first leaf was fully emerged, with 7-10 seedlings per pot. These plants were inoculated with an aqueous spore suspension of Puccinia triticina either prior to or after fungicide treatments. After inoculation the plants were kept in a dark dew room at 22° C. with 100% relative humidity overnight to permit spores to germinate and infect the leaf. The plants were then transferred to a greenhouse set at 24° C. for disease to develop. Fungicide formulation, application and disease assessment followed the procedures as described in the Example A.

[2] = system: Mycosphaerella graminicola; Anamorph: Septoria tritici; assay: Leaf Blotch of Wheat (SEPTTR) fungicidal activity on wheat seedlings; format: in vivo; details: Zymoseptoria tritici; for pest or weed control at 100 ppm: High Volume; for pest or weed control at 121.5 g/ha: Low Volume, 121.5 g/H
Procedure: Example A: Evaluation of Fungicidal Activity: Leaf Blotch of Wheat (Mycosphaerella graminicola; Anamorph: Septoria tritici; Bayer code […]): Technical grades of materials were dissolved in acetone, which were then mixed with nine volumes of water (H2O) containing 110 ppm Triton X-100. The fungicide solutions were applied onto wheat seedlings using an automated booth sprayer to run-off. All sprayed plants were allowed to air dry prior to further handling. All fungicides were evaluated using the aforementioned method for their activity vs. all target diseases, unless stated otherwise. Wheat leaf blotch and brown rust activity were also evaluated using track spray applications, in which case the fungicides were formulated as EC formulations, containing 0.1% Trycol 5941 in the spray solutions. Wheat plants (variety Yuma) were grown from seed in a greenhouse in 50% mineral soil/50% soil-less Metro mix until the first leaf was fully emerged, with 7-10 seedlings per pot. These plants were inoculated with an aqueous spore suspension of Septoria tritici either prior to or after fungicide treatments. After inoculation the plants were kept in 100% relative humidity (one day in a dark dew chamber followed by two to three days in a lighted dew chamber at 20° C.) to permit spores to germinate and infect the leaf. The plants were then transferred to a greenhouse set at 20° C. for disease to develop. When disease symptoms were fully expressed on the 1st leaves of untreated plants, infection levels were assessed on a scale of 0 to 100 percent disease severity. Percent disease control was calculated using the ratio of disease severity on treated plants relative to untreated plants.

[3] = 24 h, 1 Day Protectant, read-out: PUCCRT 1DP disease control
[4] = 24 h, 1 Day Protectant, read-out: SEPTTR 1DP disease control
[5] = 72 h, 3 Day Curative, read-out: SEPTTR 3DC disease control
[6] = 72 h, 3 Day Curative, read-out: PUCCRT 3DC disease control

Row | Structure (SMILES) | pest or weed control at 100 ppm [1, 3] [%] | pest or weed control at 100 ppm [2, 4] [%] | pest or weed control at 100 ppm [2, 5] [%] | pest or weed control at 100 ppm [1, 6] [%] | pest or weed control at 121.5 g/ha [1, 6] [%] | pest or weed control at 121.5 g/ha [2, 4] [%] | pest or weed control at 121.5 g/ha [2, 5] [%] | pest or weed control at 121.5 g/ha [1, 3] [%]
1 | COc1ccnc(C(=O)N[C@@H](CC(C)C)C(=O)O[C@@H](C)C(c2ccc(F)cc2)c2ccc(F)cc2)c1O [Cmpd 116] | < 80 | < 80 | < 80 |  |  |  |  | 
2 | COc1ccccc1C(c1ccccc1OC)[C@H](C)OC(=O)[C@H](C)NC(=O)c1nccc(OC)c1O [Cmpd 117] | > 80 | > 80 | > 80 | < 80 |  |  |  | 
3 | COc1cccc(C(c2cccc(OC)c2)[C@H](C)OC(=O)[C@H](C)NC(=O)c2nccc(OC)c2O)c1 [Cmpd 118] | > 80 | < 80 | > 80 | > 80 |  |  |  | 
4 | COc1ccnc(C(=O)N[C@@H](C)C(=O)O[C@@H](C)C(c2ccc(C)c(F)c2)c2ccc(C)c(F)c2)c1O [Cmpd 120] | > 80 | > 80 | > 80 | < 80 |  |  |  | 
5 | COc1ccnc(C(=O)N[C@@H](C)C(=O)O[C@@H](C)C(c2ccc(C)c(Cl)c2)c2ccc(C)c(Cl)c2)c1O [Cmpd 121] | > 80 | > 80 | > 80 | < 80 |  |  |  | 
6 | C#Cc1ccc(C(c2ccc(C#C)cc2)[C@H](C)OC(=O)[C@H](C)NC(=O)c2nccc(OC)c2O)cc1 [Cmpd 123] | < 80 | < 80 | > 80 |  |  |  |  | 
7 | CCc1ccc(C(c2ccc(CC)cc2)[C@H](C)OC(=O)[C@H](C)NC(=O)c2nccc(OC)c2O)cc1 [Cmpd 124] | > 80 | > 80 | > 80 | > 80 |  |  |  | 
8 | COc1ccnc(C(=O)N[C@@H](C)C(=O)O[C@@H](C)[C@@H](c2ccccc2)c2ccc(F)cc2)c1O [Cmpd 125] | > 80 | > 80 | > 80 | > 80 |  |  |  | 
9 | COc1ccnc(C(=O)N[C@@H](C)C(=O)O[C@@H](C)C(O)(c2ccc(Cl)c(Cl)c2)c2ccc(Cl)c(Cl)c2)c1O [Cmpd 127] | < 80 | < 80 |  |  |  |  |  | 
10 | COc1ccnc(C(=O)N[C@@H](C)C(=O)O[C@@H](C)C(O)(c2ccc(Cl)c(F)c2)c2ccc(Cl)c(F)c2)c1O [Cmpd 128] | < 80 | > 80 | < 80 |  |  |  |  | 
11 | COc1ccnc(C(=O)N[C@@H](C)C(=O)O[C@@H](C)C(c2ccc(Cl)c(C)c2)c2ccc(Cl)c(C)c2)c1O [Cmpd 129] | > 80 | > 80 | > 80 | < 80 |  |  |  | 
12 | COc1ccnc(C(=O)N[C@@H](C)C(=O)O[C@@H](C)C(c2ccc(F)c(Cl)c2)c2ccc(F)c(Cl)c2)c1O [Cmpd 132] | > 80 | > 80 | > 80 | < 80 |  |  |  | 
13 | COc1ccnc(C(=O)N[C@@H](C)C(=O)O[C@@H](C)C(O)(c2ccccc2)c2ccccc2)c1OCOC(C)=O [Cmpd 138] |  |  |  |  | < 80 | > 80 | < 80 | 
14 | COc1ccnc(C(=O)N[C@@H](C)C(=O)O[C@@H](C)C(c2cccs2)c2cccs2)c1OC(C)=O [Cmpd 143] |  |  |  |  |  |  | < 80 | < 80
15 | COc1ccnc(C(=O)N[C@@H](C)C(=O)O[C@@H](C)C(c2cccs2)c2cccs2)c1OCOC(C)=O [Cmpd 144] |  |  |  |  | < 80 | < 80 | < 80 | < 80
16 | CCOC(c1ccccc1)(c1ccccc1)[C@H](C)OC(=O)[C@H](C)NC(=O)c1nccc(OC)c1OCOC(C)=O [Cmpd 147] |  |  |  |  | < 80 | < 80 | > 80 | < 80
17 | COc1ccnc(C(=O)N[C@@H](C)C(=O)O[C@@H](C)C(OC)(c2ccccc2)c2ccccc2)c1OCOC(C)=O [Cmpd 149] |  |  |  |  | < 80 | > 80 | > 80 | < 80
18 | COc1ccnc(C(=O)N[C@@H](C)C(=O)O[C@@H](C)C(F)(c2ccccc2)c2ccccc2)c1OC(C)=O [Cmpd 152] |  |  |  |  | < 80 | > 80 | > 80 | < 80
19 | COc1ccnc(C(=O)N[C@@H](C)C(=O)O[C@@H](C)C(F)(c2ccccc2)c2ccccc2)c1OCOC(C)=O [Cmpd 153] |  |  |  |  | < 80 | > 80 | > 80 | < 80
20 | COc1ccc(C(c2ccc(OC)cc2)[C@H](C)OC(=O)[C@H](C)NC(=O)c2nccc(OC)c2OC(C)=O)cc1 [Cmpd 155] |  |  |  |  | > 80 | > 80 | > 80 | > 80
21 | COc1ccnc(C(=O)N[C@@H](C)C(=O)O[C@@H](C)C(c2cccc(F)c2)c2cccc(F)c2)c1OC(C)=O [Cmpd 156] |  |  |  |  | > 80 | > 80 | > 80 | > 80
22 | COc1ccnc(C(=O)N[C@@H](C)C(=O)O[C@@H](C)C(c2cccc(Cl)c2)c2cccc(Cl)c2)c1OC(C)=O [Cmpd 157] |  |  |  |  | > 80 | > 80 | > 80 | > 80
23 | COc1ccc(C(c2ccc(OC)cc2)[C@H](C)OC(=O)[C@H](C)NC(=O)c2nccc(OC)c2OCOC(C)=O)cc1 [Cmpd 158] |  |  |  |  | > 80 | > 80 | > 80 | > 80
24 | COc1ccnc(C(=O)N[C@@H](C)C(=O)O[C@@H](C)C(c2cccc(F)c2)c2cccc(F)c2)c1OCOC(C)=O [Cmpd 159] |  |  |  |  | > 80 | > 80 | > 80 | > 80
25 | COc1ccnc(C(=O)N[C@@H](C)C(=O)O[C@@H](C)C(c2cccc(Cl)c2)c2cccc(Cl)c2)c1OCOC(C)=O [Cmpd 160] |  |  |  |  | < 80 | > 80 | > 80 | > 80
26 | COc1ccnc(C(=O)N[C@@H](C)C(=O)OC(C)C2c3ccccc3-c3ccccc32)c1OCOC(C)=O (stereo partly drawn) [Cmpd 163] |  |  |  |  |  | < 80 | > 80 | < 80
27 | COc1ccnc(C(=O)N[C@@H](C)C(=O)O[C@@H](C)C(c2ccc(Br)cc2)c2ccc(Br)cc2)c1OC(C)=O [Cmpd 165] |  |  |  |  | < 80 | > 80 | > 80 | > 80
28 | COc1ccnc(C(=O)N[C@@H](C)C(=O)O[C@@H](C)C(c2ccc(C)s2)c2ccc(C)s2)c1OC(C)=O [Cmpd 166] |  |  |  |  |  | < 80 | < 80 | < 80
